Laboratory results taken from PMC7645381, “Development and application of a high-throughput screening assay for identification of small molecule inhibitors of the P. falciparum reticulocyte binding-like homologue 5 protein” (International Journal for Parasitology: Drugs and Drug …, 2020).
Counter-ions that a name gives are not always drawn.

Key:
Assay in all cases: biochemical
[1] = target: T1, P. falciparum Rh5 (Rh5 – basigin interaction) (Plasmodium falciparum, UniProt Q8IFM5); set-up: AlphaScreen of Rh5 - His-tagged basigin interaction with anti-Rh5 mAb beads; inhibition of luminescence signal; settings: primary pilot screen, single point; for % Inhibition Pilot: 20 µM, inhibitor
Procedure: Using the Combi-multidrop, 5 μL of Rh5 stock solution (200 nM prepared in assay buffer) was added to columns 1–24 of the 384-well assay plate (Greiner 384-well white, low binding plate, #784904, Bioone). The PerkinElmer Janus automated dispensing system was then employed to transfer, via the pin-tool, 2 × 100 nL of the compound stock DMSO solution from the compound master plate to the assay plate. The plate was sealed and incubated for 30 min at room temperature. Using a Combi-multidrop, 5 μL of hexa-histidine tagged basigin stock solution (80 nM prepared in assay buffer) was then added to columns 1–23 and 5 μL assay buffer to column 24 of the 384-well assay plate. The plate was sealed again and incubated for 30 min at room temperature. A solution of AlphaScreen donor and acceptor beads (20 μg/mL prepared in assay buffer) plus anti-Rh5 mAb solution (2 μg/mL prepared in assay buffer) was prepared in assay buffer under subdued lighting. Using the Combi-multidrop, 10 μL of this solution was added to every well of the assay plate under subdued lighting. The plate was sealed with foil (plate max) and incubated at room temperature for 1 h. The assay plate was then analysed on the PerkinElmer Envision 2103 Multilabel Plate Reader (Ex 680, Em 520–620 nm). The optimised Rh5 AlphaScreen assay was then validated for HT screening purposes by conducting a pilot screen using known drug library (from Prestwick, Tocris and LOPAC) and the MMV Malaria Box, comprising 3708 and 400 compounds (Fig. 1), respectively. Historically, PPIs are notoriously difficult to target with small molecules. To enhance the likelihood of identifying an inhibitor of the Rh5 - basigin interaction the primary screen was conducted at a compound concentration of 20 μM. A 20 μM screening concentration is considered high, when compared to the commonly used primary screen concentrations of approximately 1–10 μM. To follow-up on hit compounds from the pilot validation screen, we next wanted to confirm the activity of the primary hits. To do this, a two-phase hit confirmation and counterscreen process was undertaken (Fig. 1). In the first phase, the 231 primary hits from both libraries were evaluated in the Rh5 AlphaScreen assay and counterscreen assay. Both assays were undertaken at 10 μM in duplicate. The counterscreen assay was conducted using AlphaScreen TruHits. […] The 45 secondary hits can be viewed in the top left quadrant of Fig. S8. Of the 45 hits, 13 compounds originated from the Malaria Box and 32 compounds from the known drug library.

[2] = target: T1, P. falciparum Rh5 (Rh5 – basigin interaction); set-up: AlphaScreen of Rh5 - His-tagged basigin interaction with anti-Rh5 mAb beads; inhibition of luminescence signal; settings: confirmation screen, duplicate; for % Inhibition Confirmation: 10 µM, inhibitor
Procedure: Using the Combi-multidrop, 5 μL of Rh5 stock solution (200 nM prepared in assay buffer) was added to columns 1–24 of the 384-well assay plate (Greiner 384-well white, low binding plate, #784904, Bioone). The PerkinElmer Janus automated dispensing system was then employed to transfer, via the pin-tool, 2 × 100 nL of the compound stock DMSO solution from the compound master plate to the assay plate. The plate was sealed and incubated for 30 min at room temperature. Using a Combi-multidrop, 5 μL of hexa-histidine tagged basigin stock solution (80 nM prepared in assay buffer) was then added to columns 1–23 and 5 μL assay buffer to column 24 of the 384-well assay plate. The plate was sealed again and incubated for 30 min at room temperature. A solution of AlphaScreen donor and acceptor beads (20 μg/mL prepared in assay buffer) plus anti-Rh5 mAb solution (2 μg/mL prepared in assay buffer) was prepared in assay buffer under subdued lighting. Using the Combi-multidrop, 10 μL of this solution was added to every well of the assay plate under subdued lighting. The plate was sealed with foil (plate max) and incubated at room temperature for 1 h. The assay plate was then analysed on the PerkinElmer Envision 2103 Multilabel Plate Reader (Ex 680, Em 520–620 nm). […] Historically, PPIs are notoriously difficult to target with small molecules. To enhance the likelihood of identifying an inhibitor of the Rh5 - basigin interaction the primary screen was conducted at a compound concentration of 20 μM. A 20 μM screening concentration is considered high, when compared to the commonly used primary screen concentrations of approximately 1–10 μM. […] To do this, a two-phase hit confirmation and counterscreen process was undertaken (Fig. 1). […] Both assays were undertaken at 10 μM in duplicate. The counterscreen assay was conducted using AlphaScreen TruHits.

[3] = target: T1, P. falciparum Rh5 (Rh5 – basigin interaction); type: binding; settings: for Rh5 inhibitory activity in the AlphaScreen assay: highest concentration tested 50 μM

T1 sequence (Q8IFM5 24-526): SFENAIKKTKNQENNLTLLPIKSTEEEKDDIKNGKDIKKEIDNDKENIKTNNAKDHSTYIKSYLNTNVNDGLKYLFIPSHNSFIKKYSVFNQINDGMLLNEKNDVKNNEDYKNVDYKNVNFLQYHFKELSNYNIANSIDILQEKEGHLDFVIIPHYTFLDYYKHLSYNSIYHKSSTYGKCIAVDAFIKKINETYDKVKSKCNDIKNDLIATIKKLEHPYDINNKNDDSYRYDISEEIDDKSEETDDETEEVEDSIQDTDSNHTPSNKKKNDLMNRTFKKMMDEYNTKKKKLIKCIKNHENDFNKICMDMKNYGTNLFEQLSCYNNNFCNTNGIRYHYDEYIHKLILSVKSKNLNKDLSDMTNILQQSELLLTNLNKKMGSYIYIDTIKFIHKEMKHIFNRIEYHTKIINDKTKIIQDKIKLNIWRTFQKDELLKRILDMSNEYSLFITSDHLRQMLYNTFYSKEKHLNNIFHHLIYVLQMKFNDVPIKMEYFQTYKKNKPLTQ

Row | SMILES | inhibition at 20 µM ([1]; Batch Reference=01) | inhibition at 10 µM ([2]; Batch Reference=01) | further results
1 | CCCN1CCc2cc(O)cc3c2[C@H]1Cc1ccc(O)c(O)c1-3 [WEHI-1215052, R(-)-2,10,11-Trihydroxy-N-propylnoraporphine hydrobromide] | 69.8% | 87.2% | 
2 | CN1CCc2cccc3c2[C@H]1Cc1ccc(O)c(O)c1-3 [WEHI-1216442, (R)-(-)-Apomorphine hydrochloride] | 70.8% | 76.5% | 
3 | COC(=O)C1=C(C)NC(C)=C(C(=O)OC)C1c1ccccc1[N+](=O)[O-] [WEHI-0104145, Nifedipine] |  |  | inhibition at 20 µM ([1]; Batch Reference=02): 55.3%; inhibition at 20 µM ([1]; Batch Reference=03): 57.3%; inhibition at 10 µM ([2]; Batch Reference=02): 81.1%; inhibition at 10 µM ([2]; Batch Reference=03): 75.7%
4 | CN1CCc2cc(O)cc3c2[C@H]1Cc1ccc(O)c(O)c1-3 [WEHI-1215043, R(-)-2,10,11-Trihydroxyaporphine hybrobromide] | 62.6% | 84.7% | 
5 | CCOC(=O)c1cc(=O)c2cccc(NC(=O)c3ccc(OC)cc3)c2o1 [Compound 20, Ethyl 8-(4-methoxybenzamido)-4-oxo-4H-chromene-2-carboxylate] |  |  | IC50 [3]: > 50 µM
6 | CN1CCc2cccc3c2[C@H]1Cc1ccc(O)c(O)c1-3 [WEHI-1217165, R(-) Apomorphine hydrochloride hemihydrate] |  |  | % Inhibition Pilot ([1]; Batch Reference=01): 61.89%; % Inhibition Confirmation ([2]; Batch Reference=01): 62.575%
7 | CCOC(=O)c1cc(=O)c2cccc(NC(=O)c3ccc(OCCc4ccccc4)cc3)c2o1 [Compound 12, Ethyl 4-oxo-8-(4-phenethoxybenzamido)-4H-chromene-2-carboxylate] |  |  | IC50 [3]: > 50 µM
8 | CCOC(=O)c1cc(=O)c2cccc(NC(=O)c3ccc(OCCCCc4ccccc4)cc3)c2o1 [Compound 14, Ethyl 4-oxo-8-(4-(4-phenylbutoxy)benzamido)-4H-chromene-2-carboxylate] |  |  | IC50 [3]: > 50 µM
9 | COCCCOc1ccnc(C[S+]([O-])c2nc3ccccc3[nH]2)c1C (stereo not shown) [rabeprazole] | 59.6% | 68% | 
10 | CCCN1CCc2cccc3c2[C@H]1Cc1ccc(O)c(O)c1-3 [R(-)-propylnorapomorphine, reference compound] |  |  | Rh5 inhibitory activity in the AlphaScreen assay [3]: not active
11 | O=C(Nc1cccc2c(=O)cc(C(=O)O)oc12)c1ccc(OCc2ccccc2)cc1 [Compound 15, 8-(4-(Benzyloxy)benzamido)-4-oxo-4H-chromene-2-carboxylic acid] |  |  | IC50 [3]: > 50 µM; Rh5 inhibitory activity in the AlphaScreen assay [3]: No activity
12 | CC[N+](C)(CC)CCC[n+]1c(-c2ccccc2)c2cc(N)ccc2c2ccc(N)cc21 [WEHI-1216760, Propidium iodide] | 55.7% | 77% | 
13 | Br.CN1CCc2cc(O)cc3c2[C@H]1Cc1ccc(O)c(O)c1-3 [R(-)-2,10,11-trihydroxyaporphine, reference compound] |  |  | Rh5 inhibitory activity in the AlphaScreen assay [3]: not active
14 | NC(Cc1cc(O)c(O)cc1O)C(=O)O (racemic) [WEHI-1215200, 6-Hydroxy-DL-DOPA] | 69.7% | 80.7% | 
15 | C[n+]1cc2c3c(ccc2c2ccc4cc5c(cc4c21)OCO5)OCO3 [WEHI-1215580, Sanguinarine chloride] | 70.3% | 99% | 
16 | CCCN1CCc2cccc3c2[C@H]1Cc1ccc(O)c(O)c1-3 [WEHI-1215034, R(-)-Propylnorapomorphine hydrochloride] | 83% | 84.9% | 
17 | COCCCOc1ccnc(C[S+]([O-])c2nc3ccccc3[nH]2)c1C (stereo not shown) [rabeprazole, reference compound] |  |  | Rh5 inhibitory activity in the AlphaScreen assay [3]: not active
18 | CC#C[C@]1(O)CC[C@H]2[C@@H]3CCC4=CC(=O)CCC4=C3[C@@H](c3ccc(N(C)C)cc3)C[C@@]21C [WEHI-1215337, Mifepristone] | 75.3% | 91.7% | inhibition at 20 µM ([1]; Batch Reference=03): 76.6%; inhibition at 10 µM ([2]; Batch Reference=03): 96.5%
19 | CN1CCc2cccc3c2[C@H]1Cc1ccc(O)c(O)c1-3 [WEHI-1214737, Apomorphine hydrochloride hemihydrate] |  |  | % Inhibition Pilot ([1]; Batch Reference=01): 62.755%; % Inhibition Confirmation ([2]; Batch Reference=01): 72.2885%
20 | NCCNCCNCCNCCN [WEHI-1217021, Tetraethylenepentamine pentahydrochloride] | 96.2% | 96.9% | 
21 | CN1CCc2cccc3c2[C@H]1Cc1ccc(O)c(O)c1-3 [R(-)-apomorphine, reference compound] |  |  | Rh5 inhibitory activity in the AlphaScreen assay [3]: not active
22 | CN(C)C(=O)CCSC(SCCC(=O)O)c1cccc(/C=C/c2ccc3ccc(Cl)cc3n2)c1 (stereo not shown) [MK 571, reference compound] |  |  | Rh5 inhibitory activity in the AlphaScreen assay [3]: did not show Rh5 inhibitory activity
23 | CC(=O)N1CCN(c2ccc(OC[C@@H]3CO[C@@](Cn4ccnc4)(c4ccc(Cl)cc4Cl)O3)cc2)CC1 (racemic) [WEHI-1215227, Ketoconazole] |  |  | inhibition at 20 µM ([1]; Batch Reference=02): 58.3%
24 | O=C1C=CC(=O)c2c1ccc1c2ccc2ccccc21 [WEHI-1216729, Chrysene-1,4-quinone] | 56.6% | 71% | 
25 | CCOC(=O)c1cc(=O)c2cccc(NC(=O)c3ccc(OCc4ccccc4)cc3)c2o1 [Compound 11, Ethyl 8-(4-(benzyloxy)benzamido)-4-oxo-4H-chromene-2-carboxylate] |  |  | IC50 [3]: > 50 µM
26 | O=C(O)Cc1cccc(OCCCN(Cc2cccc(C(F)(F)F)c2Cl)CC(c2ccccc2)c2ccccc2)c1 [WEHI-1216231, GW 3965 hydrochloride] | 57.8% | 51.1% | 
